Laboratory results from ChEMBL document CHEMBL1201862, “PubChem BioAssay data set” (2004).
The source made the active and inactive calls. For most assays here, no stated cut-off is given here; in the data, actives have a measured EC50 and inactives only a lower limit.

Tests used:
[1] = target: T1, RNA-binding protein pos-1 (Caenorhabditis elegans, UniProt G5EF15); assay: inhibitors of POS-1/mex-3 RNA binding, dose response, biochemical, fluorescence polarization (AID 1964);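 further: purified POS-1 fused to maltose binding protein made in E. coli; potency of compounds blocking POS-1 binding to fluorescent RNA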
T1 sequence (G5EF15 whole entry): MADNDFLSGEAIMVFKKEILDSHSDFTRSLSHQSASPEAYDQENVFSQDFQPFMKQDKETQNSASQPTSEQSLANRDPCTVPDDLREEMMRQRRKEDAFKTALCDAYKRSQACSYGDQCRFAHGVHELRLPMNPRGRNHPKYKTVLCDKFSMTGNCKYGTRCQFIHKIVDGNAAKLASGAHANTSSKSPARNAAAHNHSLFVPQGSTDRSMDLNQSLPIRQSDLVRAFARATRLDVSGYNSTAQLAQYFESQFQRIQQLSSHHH

[2] = target: T2, Zinc finger protein mex-5 (Caenorhabditis elegans, UniProt Q9XUB2); assay: MEX-5/TCR-2 RNA interaction inhibitors, dose response, biochemical, C. elegans, fluorescence polarization (AID 1960)
T2 sequence (Q9XUB2 whole entry): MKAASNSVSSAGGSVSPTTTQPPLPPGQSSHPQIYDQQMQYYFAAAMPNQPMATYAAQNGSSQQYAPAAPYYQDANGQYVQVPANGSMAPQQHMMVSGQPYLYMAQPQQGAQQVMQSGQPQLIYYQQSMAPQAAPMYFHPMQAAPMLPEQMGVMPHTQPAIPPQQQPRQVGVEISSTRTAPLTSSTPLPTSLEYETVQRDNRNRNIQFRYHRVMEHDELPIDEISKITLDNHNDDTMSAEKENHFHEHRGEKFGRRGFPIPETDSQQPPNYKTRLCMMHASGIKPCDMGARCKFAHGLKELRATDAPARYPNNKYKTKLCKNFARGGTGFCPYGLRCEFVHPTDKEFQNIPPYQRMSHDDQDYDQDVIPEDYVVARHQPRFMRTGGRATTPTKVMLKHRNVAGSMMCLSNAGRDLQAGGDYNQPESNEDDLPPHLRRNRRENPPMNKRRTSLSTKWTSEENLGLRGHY

[3] = inhibitors of firefly luciferase expression or activity, dose response, H4 neuroglioma cells, luminescence (AID 1990); type: functional, cell-based
[4] = cytotoxicity toward DRD oncogenic fibroblasts, dose response, cell-based, non-viral oncogenic, luminescence (AID 1934); type: functional; details: Homo sapiens
[5] = inhibitors of SNCA 5'UTR-driven reporter translation, confirmation, H4 neuroglioma cells, luminescence (AID 1988); type: functional, cell-based
[6] = cytotoxicity in HEK-293T cells, dose response, cytotoxicity control for TCR NF-kB inhibitor project, luminescence, T-cell screen hits (AID 489026); type: functional, cell-based;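 further: cells exposed to compound about 14 hours before the viability readout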
[7] = Luminescence Cell-Based Dose Response HTS to Identify Inhibitors of 5'UTR Stem-Loop Driven Prion Protein mRNA Translation in H4 Neuroglioblastoma Cells. [Related pubchem assays: 1827 (Project Summary), 1813 (Primary HTS)]; type: functional
[8] = test system: BJ; assay: cytotoxicity toward BJ-TERT-LT-ST fibroblasts, dose response, cell-based, RAS-independent, luminescence (AID 1935); type: functional; details: Homo sapiens;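 further: BJ fibroblasts immortalized with TERT plus LT and ST oncogenes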
[9] = test system: BJ; assay: cells; type: functional, cell-based; details: Homo sapiens
[10] = test system: BJ; assay: cytotoxicity toward BJ-TERT fibroblasts, dose response, cell-based, RAS-independent, luminescence (AID 1933); type: functional; details: Homo sapiens
[11] = target: Paired box protein Pax-8 (Homo sapiens, UniProt Q06710); assay: inhibitors of PAX8-driven TPO luciferase reporter, dose response, RMG-I cells, cherry-pick (AID 687027); type: functional, cell-based;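 further: luciferase reporter driven by Pax8 target thyroperoxidase promoter measured by SteadyGlo luminescence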
Paired box protein Pax-8, sequence (Q06710 whole entry, the tested form may be a part): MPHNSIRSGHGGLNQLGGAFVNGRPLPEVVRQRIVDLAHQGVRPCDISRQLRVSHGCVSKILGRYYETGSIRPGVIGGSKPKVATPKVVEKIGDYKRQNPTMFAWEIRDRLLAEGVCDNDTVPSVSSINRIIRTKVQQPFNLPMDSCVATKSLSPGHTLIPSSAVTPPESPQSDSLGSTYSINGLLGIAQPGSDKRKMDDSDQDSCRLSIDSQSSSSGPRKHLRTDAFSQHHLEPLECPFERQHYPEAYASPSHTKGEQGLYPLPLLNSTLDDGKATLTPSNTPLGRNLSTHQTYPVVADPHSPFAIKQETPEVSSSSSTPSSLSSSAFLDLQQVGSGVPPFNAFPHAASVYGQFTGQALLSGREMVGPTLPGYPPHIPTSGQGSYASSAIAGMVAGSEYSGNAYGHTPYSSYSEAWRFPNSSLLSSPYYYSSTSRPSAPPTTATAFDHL

[12] = target: T3, Fatty acid synthase (Homo sapiens, UniProt P49327); assay: FAS thioesterase domain inhibitors, dose response, biochemical, endpoint fluorescence intensity, uHTS hits (AID 624327); type: functional;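 further: fluorescence from hydrolysis of an O-methyl fluorescein acyl ester substrate by the enzyme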
T3 sequence (P49327 whole entry, the tested form may be a part): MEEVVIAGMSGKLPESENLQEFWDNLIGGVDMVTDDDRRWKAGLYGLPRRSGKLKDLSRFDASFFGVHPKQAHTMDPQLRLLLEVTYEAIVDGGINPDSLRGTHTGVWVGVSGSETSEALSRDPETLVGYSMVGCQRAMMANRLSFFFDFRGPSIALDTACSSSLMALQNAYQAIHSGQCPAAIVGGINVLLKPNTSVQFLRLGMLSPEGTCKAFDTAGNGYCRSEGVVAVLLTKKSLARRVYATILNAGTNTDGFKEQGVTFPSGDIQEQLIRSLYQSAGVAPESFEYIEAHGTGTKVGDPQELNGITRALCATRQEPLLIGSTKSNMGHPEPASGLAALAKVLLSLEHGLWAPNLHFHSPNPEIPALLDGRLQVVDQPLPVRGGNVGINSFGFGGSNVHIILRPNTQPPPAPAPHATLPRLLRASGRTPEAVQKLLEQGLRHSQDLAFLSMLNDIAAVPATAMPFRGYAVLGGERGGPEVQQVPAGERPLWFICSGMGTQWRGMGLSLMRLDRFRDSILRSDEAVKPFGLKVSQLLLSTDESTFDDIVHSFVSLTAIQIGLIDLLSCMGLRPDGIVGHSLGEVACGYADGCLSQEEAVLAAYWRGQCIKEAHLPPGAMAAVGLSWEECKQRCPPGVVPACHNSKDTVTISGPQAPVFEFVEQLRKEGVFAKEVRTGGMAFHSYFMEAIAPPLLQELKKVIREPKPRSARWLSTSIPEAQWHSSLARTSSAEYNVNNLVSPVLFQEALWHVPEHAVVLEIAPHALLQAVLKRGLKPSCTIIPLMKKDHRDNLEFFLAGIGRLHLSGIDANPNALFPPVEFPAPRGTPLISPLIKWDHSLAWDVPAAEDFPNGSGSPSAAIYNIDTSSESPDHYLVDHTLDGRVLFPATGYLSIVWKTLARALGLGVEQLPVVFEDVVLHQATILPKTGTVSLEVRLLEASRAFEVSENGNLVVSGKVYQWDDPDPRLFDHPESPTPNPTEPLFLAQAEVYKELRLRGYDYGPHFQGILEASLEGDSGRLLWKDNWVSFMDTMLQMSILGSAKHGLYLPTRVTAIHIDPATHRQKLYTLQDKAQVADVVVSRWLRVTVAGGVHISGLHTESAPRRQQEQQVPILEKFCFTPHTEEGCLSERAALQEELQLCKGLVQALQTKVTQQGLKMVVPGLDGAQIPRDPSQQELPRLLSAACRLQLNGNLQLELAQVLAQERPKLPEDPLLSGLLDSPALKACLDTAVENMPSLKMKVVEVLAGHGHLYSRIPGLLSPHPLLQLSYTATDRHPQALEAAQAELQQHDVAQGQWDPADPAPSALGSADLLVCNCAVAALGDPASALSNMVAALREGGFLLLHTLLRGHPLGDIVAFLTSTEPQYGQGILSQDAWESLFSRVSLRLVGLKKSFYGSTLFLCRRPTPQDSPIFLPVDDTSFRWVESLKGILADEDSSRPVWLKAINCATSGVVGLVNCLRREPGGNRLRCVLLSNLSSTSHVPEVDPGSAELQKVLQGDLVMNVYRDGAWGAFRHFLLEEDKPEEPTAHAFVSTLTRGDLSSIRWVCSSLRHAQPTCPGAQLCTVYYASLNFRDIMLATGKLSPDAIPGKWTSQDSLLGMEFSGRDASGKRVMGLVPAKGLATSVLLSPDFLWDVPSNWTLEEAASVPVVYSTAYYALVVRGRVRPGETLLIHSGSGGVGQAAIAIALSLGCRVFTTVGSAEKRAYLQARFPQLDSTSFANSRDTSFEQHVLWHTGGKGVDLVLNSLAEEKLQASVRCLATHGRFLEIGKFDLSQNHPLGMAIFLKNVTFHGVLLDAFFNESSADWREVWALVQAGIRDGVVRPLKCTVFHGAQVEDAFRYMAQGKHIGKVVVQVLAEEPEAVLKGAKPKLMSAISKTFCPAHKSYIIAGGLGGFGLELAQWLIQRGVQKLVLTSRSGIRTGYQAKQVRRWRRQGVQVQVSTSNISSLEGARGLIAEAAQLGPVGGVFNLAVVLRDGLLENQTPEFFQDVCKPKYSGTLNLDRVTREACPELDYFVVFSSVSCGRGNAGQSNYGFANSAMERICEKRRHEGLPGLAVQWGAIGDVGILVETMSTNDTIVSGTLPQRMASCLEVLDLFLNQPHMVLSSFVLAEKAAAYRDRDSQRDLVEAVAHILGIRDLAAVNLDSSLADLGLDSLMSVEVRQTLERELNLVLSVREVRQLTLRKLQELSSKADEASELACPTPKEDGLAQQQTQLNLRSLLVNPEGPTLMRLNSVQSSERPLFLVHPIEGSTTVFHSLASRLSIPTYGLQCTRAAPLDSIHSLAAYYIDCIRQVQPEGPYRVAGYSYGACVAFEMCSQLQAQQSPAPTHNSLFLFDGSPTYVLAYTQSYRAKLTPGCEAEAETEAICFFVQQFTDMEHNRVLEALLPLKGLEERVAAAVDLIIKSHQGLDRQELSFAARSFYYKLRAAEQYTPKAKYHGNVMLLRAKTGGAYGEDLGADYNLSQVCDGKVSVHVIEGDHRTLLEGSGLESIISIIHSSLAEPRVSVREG

[13] = target: T3, Fatty acid synthase; assay: FAS thioesterase domain inhibitors, dose response, biochemical, kinetic fluorescence intensity (AID 624326); type: functional;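 further: rate of fluorescence rise from hydrolysis of a fluorogenic O-methyl fluorescein ester substrate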
[14] = target: T4, Histone-lysine N-methyltransferase NSD2 (Homo sapiens, UniProt O96028); type: biochemical
T4 sequence (O96028 whole entry): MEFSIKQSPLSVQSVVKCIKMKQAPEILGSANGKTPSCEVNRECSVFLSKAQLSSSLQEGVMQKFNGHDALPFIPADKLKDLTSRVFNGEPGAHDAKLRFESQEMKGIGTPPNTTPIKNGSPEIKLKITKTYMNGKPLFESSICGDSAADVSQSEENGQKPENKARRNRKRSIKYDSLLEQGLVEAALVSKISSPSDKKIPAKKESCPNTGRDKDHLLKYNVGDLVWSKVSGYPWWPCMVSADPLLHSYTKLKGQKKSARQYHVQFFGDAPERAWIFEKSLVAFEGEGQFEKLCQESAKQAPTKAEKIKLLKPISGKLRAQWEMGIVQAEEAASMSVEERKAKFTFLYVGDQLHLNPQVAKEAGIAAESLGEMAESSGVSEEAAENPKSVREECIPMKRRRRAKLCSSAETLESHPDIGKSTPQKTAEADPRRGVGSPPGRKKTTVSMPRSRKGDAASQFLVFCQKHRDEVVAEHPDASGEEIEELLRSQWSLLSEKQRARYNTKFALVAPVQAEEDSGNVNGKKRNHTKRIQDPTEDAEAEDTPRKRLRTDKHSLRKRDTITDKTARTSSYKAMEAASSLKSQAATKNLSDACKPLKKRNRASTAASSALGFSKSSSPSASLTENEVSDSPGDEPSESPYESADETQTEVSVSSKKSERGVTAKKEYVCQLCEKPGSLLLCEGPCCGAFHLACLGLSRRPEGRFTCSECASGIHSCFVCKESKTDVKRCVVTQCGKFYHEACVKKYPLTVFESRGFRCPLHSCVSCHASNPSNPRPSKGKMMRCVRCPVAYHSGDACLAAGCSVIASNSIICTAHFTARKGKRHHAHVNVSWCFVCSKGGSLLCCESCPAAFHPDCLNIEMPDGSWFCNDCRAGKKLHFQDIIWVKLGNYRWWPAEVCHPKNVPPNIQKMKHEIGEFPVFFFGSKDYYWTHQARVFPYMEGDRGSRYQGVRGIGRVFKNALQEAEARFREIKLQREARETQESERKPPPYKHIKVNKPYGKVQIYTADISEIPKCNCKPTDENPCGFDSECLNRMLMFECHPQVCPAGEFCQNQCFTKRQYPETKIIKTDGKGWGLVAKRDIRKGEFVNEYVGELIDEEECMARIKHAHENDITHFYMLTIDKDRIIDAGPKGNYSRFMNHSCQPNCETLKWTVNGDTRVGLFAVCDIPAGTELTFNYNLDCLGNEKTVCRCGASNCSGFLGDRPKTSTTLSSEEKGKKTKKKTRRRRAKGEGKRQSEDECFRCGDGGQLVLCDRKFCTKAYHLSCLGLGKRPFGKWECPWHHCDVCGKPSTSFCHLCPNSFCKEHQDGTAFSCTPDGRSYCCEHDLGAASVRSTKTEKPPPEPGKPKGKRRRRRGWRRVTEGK

[15] = target: T5, Carboxy-terminal domain RNA polymerase II polypeptide A small phosphatase 1 (Homo sapiens, UniProt Q9GZU7); assay: inhibitors of CTDSP1, concentration-response testing, biochemical assay, absorbance-based, actives from ultra-high-throughput screening (AID 540297); type: functional
T5 sequence (Q9GZU7 whole entry): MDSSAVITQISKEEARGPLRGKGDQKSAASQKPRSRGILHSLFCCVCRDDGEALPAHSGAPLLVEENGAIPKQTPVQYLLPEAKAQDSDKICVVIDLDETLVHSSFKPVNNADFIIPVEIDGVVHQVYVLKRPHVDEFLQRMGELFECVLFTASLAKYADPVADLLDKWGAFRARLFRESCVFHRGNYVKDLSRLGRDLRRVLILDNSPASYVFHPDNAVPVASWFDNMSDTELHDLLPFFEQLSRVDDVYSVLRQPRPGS

[16] = target: T6, Leucine aminopeptidase (Plasmodium falciparum 3D7, UniProt Q8IL11); assay: P. falciparum M17LAP inhibitors, primary screen, biochemical, fluorogenic H-Leu-NHMec substrate, 1536-well (AID 1619); type: functional
T6 sequence (Q8IL11 whole entry): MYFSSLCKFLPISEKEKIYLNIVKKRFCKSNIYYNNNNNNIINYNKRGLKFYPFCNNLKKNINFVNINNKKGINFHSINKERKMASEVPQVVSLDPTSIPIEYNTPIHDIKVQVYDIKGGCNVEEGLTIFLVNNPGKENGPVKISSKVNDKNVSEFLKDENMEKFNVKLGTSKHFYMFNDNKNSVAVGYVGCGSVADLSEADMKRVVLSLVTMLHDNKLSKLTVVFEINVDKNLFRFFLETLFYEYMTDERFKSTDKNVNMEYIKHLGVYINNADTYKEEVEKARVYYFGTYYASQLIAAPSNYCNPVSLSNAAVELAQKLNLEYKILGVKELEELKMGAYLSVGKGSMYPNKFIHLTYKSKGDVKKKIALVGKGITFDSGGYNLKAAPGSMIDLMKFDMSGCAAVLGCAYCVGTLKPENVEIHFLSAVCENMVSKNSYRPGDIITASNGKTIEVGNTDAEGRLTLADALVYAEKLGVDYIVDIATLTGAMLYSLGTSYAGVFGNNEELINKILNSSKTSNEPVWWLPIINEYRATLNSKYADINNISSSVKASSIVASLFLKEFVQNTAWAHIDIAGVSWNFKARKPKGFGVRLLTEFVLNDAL

[17] = target: T7, Heat shock factor protein 1 (Mus musculus, UniProt P38532); assay: inhibition of MG132-induced HSE-luciferase signal, confirmation, cell-based, NIH3T3, luminescence, dose retest (AID 2382); type: functional;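 further: NIH3T3 fibroblasts with HSF1-driven luciferase reporter stressed by proteasome inhibitor MG132; luminescence from HSF1-driven luciferase expression after 8 hours of MG132 stress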
T7 sequence (P38532 whole entry): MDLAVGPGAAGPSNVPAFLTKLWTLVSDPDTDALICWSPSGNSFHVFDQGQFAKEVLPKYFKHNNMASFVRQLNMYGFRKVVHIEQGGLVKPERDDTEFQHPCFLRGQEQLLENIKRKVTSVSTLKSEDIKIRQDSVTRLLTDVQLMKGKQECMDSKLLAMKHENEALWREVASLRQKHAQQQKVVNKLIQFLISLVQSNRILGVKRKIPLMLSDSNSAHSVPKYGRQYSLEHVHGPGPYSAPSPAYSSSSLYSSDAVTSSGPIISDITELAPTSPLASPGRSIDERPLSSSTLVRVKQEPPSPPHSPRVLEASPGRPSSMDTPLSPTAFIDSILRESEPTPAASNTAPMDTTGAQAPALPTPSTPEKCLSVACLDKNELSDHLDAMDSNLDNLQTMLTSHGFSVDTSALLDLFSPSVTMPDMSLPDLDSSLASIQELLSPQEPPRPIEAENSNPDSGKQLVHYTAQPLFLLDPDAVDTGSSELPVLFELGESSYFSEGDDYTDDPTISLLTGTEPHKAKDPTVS

[18] = microbe, parasite or virus in culture; type: functional; details: Mycobacterium tuberculosis
[19] = test system: INS1; assay: beta cell apoptosis inhibitors, cytokine rescue, dose response, luminescence, retest (AID 449756); type: functional, cell-based; details: Rattus norvegicus;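 further: cell death triggered by IL-1 beta plus TNF-alpha plus IFN-gamma mixture; protective hits raise ATP signal compared with cytokine alone wells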

| SMILES | EC50 [1] | EC50 [2] | IC50 [12] | IC50 [13] | also measured |
| --- | --- | --- | --- | --- | --- |
| CCCCC1=CC2=CC(=O)C(C)(O)C(=O)C2=CO1 (stereo not drawn) | 55.3 µM (active) | 23.5 µM (active) |  |  |  |
| Cc1ccc(-c2nnc(Nc3ccc(CC(N)=O)cc3)c3ccccc23)cc1S(N)(=O)=O | > 300 µM (not active) | > 300 µM (not active) |  |  |  |
| Cc1ccc(C(=O)c2cc([N+](=O)[O-])ccc2N2CCCCC2)cc1 |  |  |  |  | EC50 [3]: 0.129 µM (active); EC50 [4]: 1.21 µM (active); EC50 [5]: < 0.1 µM (active); IC50 [6]: > 80 µM (inactive); EC50 [7]: 0.303 µM (active); EC50 [8]: 576 nM (inconclusive); EC50 [9]: 82.5 µM (inconclusive); EC50 [10]: 493 nM (inconclusive); AC50 [11]: 3.39 µM (active) |
| CCOc1ccc(C(=O)COC(=O)c2cc([N+](=O)[O-])ccc2N2CCOCC2)cc1 |  |  | 6.76 µM (active) | 5.81 µM (active) |  |
| O=C(N/N=C/c1ccc(Br)o1)/C(=C/c1ccc([N+](=O)[O-])cc1)NC(=O)c1ccccc1 |  |  | 9.86 µM (active) | 10.8 µM (active) |  |
| C[C@H](CO)N1C[C@H](C)[C@@H](CN(C)Cc2ccc(Cl)c(Cl)c2)Oc2c(NS(=O)(=O)c3ccc(F)cc3)cccc2C1=O |  |  | 11.9 µM (active) | 13.2 µM (active) |  |
| Cc1ccc(NC(=O)c2cc([N+](=O)[O-])ccc2N2CCCC2)cc1 |  |  | 8.09 µM (active) | 5.53 µM (active) |  |
| Cc1cc(/C=C(/C#N)c2nc3ccccc3[nH]2)c(C)n1-c1cc(C(=O)O)cc(C(=O)O)c1 | 59.3 µM (active) | 41.4 µM (active) |  |  | AC50 [14]: > 20 µM (inactive); IC50 [15]: 5.68 µM (active); IC50 [16]: 42.6 µM (active) |
| Cc1cc(=O)n2c(n1)/C(=N\Nc1ccccc1)C(=O)N2 | 0.374 µM (inconclusive) |  |  |  | EC50 [17]: > 195 µM (not active) |
| O=C1C([N-]S(=O)(=O)c2cccs2)=C([n+]2ccc(CCCc3ccccc3)cc2)C(=O)c2ccccc21 | 119 µM (active) | 97 µM (active) |  |  | EC50 [3]: 10.5 µM (active); EC50 [5]: 8.36 µM (active); EC50 [7]: > 120 µM (not active); CC50 [18]: 9.69 µM (active); AC50 [19]: 8.75 µM (active) |
| CC(C)(C)c1ccc(/C=N/NC(=S)NC2CCCCC2)cc1 |  |  | 12.7 µM (active) | 15.4 µM (active) |  |
| CC1=N/C(=C/c2ccco2)C(=O)O1 | 71.1 µM (active) | 33.1 µM (active) |  |  |  |
| COC(=O)c1c(O)[n+]([O-])c2ccc(OC)cc2[n+]1[O-] | 14.1 µM (active) | > 300 µM (inconclusive) |  |  |  |
| O=C(CC1C[C@H](C(=O)N2CCOCC2)[C@@]2(CCC3CCCC3)c3[nH]c4ccccc4c3CCN2C1=O)NCCc1ccccn1 (stereo partly drawn) |  |  | 1.37 µM (active) | 1.09 µM (active) |  |
